According to patent US20240208992A1, “MACROCYCLES AS CFTR MODULATORS” (Idorsia Pharmaceuticals Ltd, priority 2021, published 2024):

Biological target: human F508del-CFTR (Homo sapiens, UniProt P13569, DEL508-508)
Assay: F508del-CFTR cell surface expression (corrector activity), DiscoveRx ß-galactosidase complementation chemiluminescence assay in recombinant U2OS cell line;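 note: U2OS cells co-expressing ProLink-tagged F508del-CFTR and a membrane-anchored enzyme acceptor, where more surface CFTR restores β-galactosidase activity measured by chemiluminescence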
Settings: for EC50: EC50, F508del-CFTR cell surface expression, U2OS cells, 16h compound incubation, geomean values; for Emax: U2OS, in relation to Emax of corrector lumacaftor (=100%), arithmetic mean values

human F508del-CFTR, sequence (P13569 with tags, fused parts or gaps DEL508-508): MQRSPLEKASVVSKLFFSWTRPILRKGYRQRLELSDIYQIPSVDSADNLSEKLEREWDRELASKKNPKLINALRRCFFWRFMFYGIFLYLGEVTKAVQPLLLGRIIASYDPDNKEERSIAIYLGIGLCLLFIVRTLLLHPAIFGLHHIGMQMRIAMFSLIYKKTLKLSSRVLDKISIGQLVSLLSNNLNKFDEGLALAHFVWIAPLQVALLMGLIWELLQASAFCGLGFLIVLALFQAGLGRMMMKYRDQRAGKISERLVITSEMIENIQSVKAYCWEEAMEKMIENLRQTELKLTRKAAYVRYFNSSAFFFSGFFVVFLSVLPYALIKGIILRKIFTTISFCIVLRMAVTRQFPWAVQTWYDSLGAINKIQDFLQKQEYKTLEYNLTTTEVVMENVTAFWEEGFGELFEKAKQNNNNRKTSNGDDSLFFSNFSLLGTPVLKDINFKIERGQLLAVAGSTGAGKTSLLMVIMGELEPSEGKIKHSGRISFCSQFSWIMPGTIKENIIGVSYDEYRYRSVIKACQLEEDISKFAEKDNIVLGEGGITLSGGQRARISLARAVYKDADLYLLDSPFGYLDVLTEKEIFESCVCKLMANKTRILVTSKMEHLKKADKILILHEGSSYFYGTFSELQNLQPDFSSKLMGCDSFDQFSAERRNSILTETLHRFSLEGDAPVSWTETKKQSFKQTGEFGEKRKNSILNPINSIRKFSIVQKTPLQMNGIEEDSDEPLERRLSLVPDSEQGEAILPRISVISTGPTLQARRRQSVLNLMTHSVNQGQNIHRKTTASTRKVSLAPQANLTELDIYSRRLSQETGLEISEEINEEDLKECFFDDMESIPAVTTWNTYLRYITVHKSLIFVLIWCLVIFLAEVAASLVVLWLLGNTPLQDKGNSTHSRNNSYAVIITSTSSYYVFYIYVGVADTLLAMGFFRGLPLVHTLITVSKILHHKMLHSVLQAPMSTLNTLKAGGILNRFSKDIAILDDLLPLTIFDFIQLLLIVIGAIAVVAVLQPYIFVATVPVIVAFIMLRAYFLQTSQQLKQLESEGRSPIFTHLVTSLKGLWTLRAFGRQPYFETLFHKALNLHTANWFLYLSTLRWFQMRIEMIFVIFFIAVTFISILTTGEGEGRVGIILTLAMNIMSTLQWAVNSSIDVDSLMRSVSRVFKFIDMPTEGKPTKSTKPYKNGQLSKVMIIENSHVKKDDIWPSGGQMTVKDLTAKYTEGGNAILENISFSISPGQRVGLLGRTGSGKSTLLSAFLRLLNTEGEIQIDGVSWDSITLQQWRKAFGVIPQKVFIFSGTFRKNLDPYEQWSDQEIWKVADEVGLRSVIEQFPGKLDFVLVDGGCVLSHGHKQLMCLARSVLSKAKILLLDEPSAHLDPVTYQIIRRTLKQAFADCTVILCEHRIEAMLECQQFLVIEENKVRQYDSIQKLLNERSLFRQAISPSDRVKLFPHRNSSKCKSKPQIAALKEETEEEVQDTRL

SMILES	EC50	Emax
CC(C)C[C@H]1C(=O)N(CCC2CCCCC2)CC(=O)N[C@H](Cc2ccccc2)COc2ccncc2C(=O)N[C@H](C(=O)NCCc2ccc3c(c2)OCO3)CC(=O)N1C [Example 589, (3R,9S,13S)-N-(2-(benzo[d][1,3]dioxol-5-yl)ethyl)-3-benzyl-7-(2-cyclohexylethyl)-9-isobutyl-10-methyl-5,8,11,15-tetraoxo-2,3,4,5,6,7,8,9,10,11,12,13,14,15-tetradecahydropyrido[3,4-p][1]oxa[4,7,10,14]tetraazacycloheptadecine-13-carboxamide]	298 nM	160%
COc1cccc(CCNC(=O)[C@@H]2CC(=O)N(C)[C@@H](CC(C)C)C(=O)N(CCC3CCCCC3)CC(=O)N[C@H](Cc3ccccc3)COc3ccncc3C(=O)N2)c1 [Example 590, (3R,9S,13S)-3-benzyl-7-(2-cyclohexylethyl)-9-isobutyl-N-(3-methoxyphenethyl)-10-methyl-5,8,11,15-tetraoxo-2,3,4,5,6,7,8,9,10,11,12,13,14,15-tetradecahydropyrido[3,4-p][1]oxa[4,7,10,14]tetraazacycloheptadecine-13-carboxamide]	362 nM	201%
COc1cccc(CCNC(=O)[C@@H]2CC(=O)N(C)[C@@H](CC(C)C)C(=O)N3CCCC[C@@H]3C(=O)N[C@H](Cc3ccccc3)COc3cccc(OC)c3C(=O)N2)c1 [Example 591, (7S,11S,20R,22aR)-20-benzyl-7-isobutyl-14-methoxy-N-(3-methoxyphenethyl)-8-methyl-6,9,13,22-tetraoxo-1,3,4,6,7,8,9,10,11,12,13,19,20,21,22,22a-hexadecahydro-2H-benzo[p]pyrido[2,1-f][1]oxa[4,7,10,14]tetraazacycloheptadecine-11-carboxamide]	341 nM	259%
CC(C)C[C@H]1C(=O)N2CCCC[C@H]2C(=O)N[C@H](Cc2ccccc2)COc2ccncc2C(=O)N[C@H](C(=O)NCCc2ccc3c(c2)OCC3)CC(=O)N1C [Example 592, (7S,11S,17aS,20R)-20-benzyl-N-(2-(2,3-dihydrobenzofuran-6-yl)ethyl)-11-isobutyl-10-methyl-5,9,12,18-tetraoxo-5,6,7,8,9,10,11,12,15,16,17,17a,18,19,20,21-hexadecahydro-14H-dipyrido[2,1-f:3′,4′-p][1]oxa[4,7,10,14]tetraazacycloheptadecine-7-carboxamide]	881 nM	119%
CC(C)C[C@H]1C(=O)N2CCCC[C@@H]2C(=O)N[C@H](Cc2ccccc2)COc2ccncc2C(=O)N[C@H](C(=O)NCCc2ccc3c(c2)OCC3)CC(=O)N1C [Example 593, (7S,11S,17aR,20R)-20-benzyl-N-(2-(2,3-dihydrobenzofuran-6-yl)ethyl)-11-isobutyl-10-methyl-5,9,12,18-tetraoxo-5,6,7,8,9,10,11,12,15,16,17,17a,18,19,20,21-hexadecahydro-14H-dipyrido[2,1-f:3′,4′-p][1]oxa[4,7,10,14]tetraazacycloheptadecine-7-carboxamide]	614 nM	190%
CC(C)C[C@H]1C(=O)N2CCCC[C@@H]2C(=O)N[C@H](Cc2ccccc2)COc2ccncc2C(=O)N[C@H](C(=O)NCCc2ccc3c(c2)OCCO3)CC(=O)N1C [Example 594, (7S,11S,17aR,20R)-20-benzyl-N-(2-(2,3-dihydrobenzo[b][1,4]dioxin-6-yl)ethyl)-11-isobutyl-10-methyl-5,9,12,18-tetraoxo-5,6,7,8,9,10,11,12,15,16,17,17a,18,19,20,21-hexadecahydro-14H-dipyrido[2,1-f:3′,4′-p][1]oxa[4,7,10,14]tetraazacycloheptadecine-7-carboxamide]	810 nM	171%
COc1cccc(CCNC(=O)[C@@H]2CC(=O)N(C)[C@@H](CC(C)C)C(=O)N(C)CC(=O)N[C@H](Cc3ccccc3)COc3ccc4ccccc4c3C(=O)N2)c1 [Example 595, (3S,7S,13R)-13-benzyl-7-isobutyl-N-(3-methoxyphenethyl)-6,9-dimethyl-1,5,8,11-tetraoxo-1,2,3,4,5,6,7,8,9,10,11,12,13,14-tetradecahydronaphtho[1,2-p][1]oxa[4,7,10,14]tetraazacycloheptadecine-3-carboxamide]	332 nM	233%
COc1cc2c(cc1OC)C(=O)N[C@H](C(=O)NCCc1ccc3c(c1)OCCC3)CC(=O)N(C)[C@@H](CC(C)C)C(=O)N(CCC1CCCCC1)CC(=O)N[C@H](Cc1ccccc1)CO2 [Example 596, (3R,9S,13S)-3-benzyl-N-(2-(chroman-7-yl)ethyl)-7-(2-cyclohexylethyl)-9-isobutyl-17,18-dimethoxy-10-methyl-5,8,11,15-tetraoxo-2,3,4,5,6,7,8,9,10,11,12,13,14,15-tetradecahydrobenzo[p][1]oxa[4,7,10,14]tetraazacycloheptadecine-13-carboxamide]	167 nM	195%
COc1cc2c(cc1OC)C(=O)N[C@H](C(=O)NCCc1ccc3c(c1)OCC3)CC(=O)N(C)[C@@H](CC(C)C)C(=O)N(CCC1CCCCC1)CC(=O)N[C@H](Cc1ccccc1)CO2 [Example 597, (3R,9S,13S)-3-benzyl-7-(2-cyclohexylethyl)-N-(2-(2,3-dihydrobenzofuran-6-yl)ethyl)-9-isobutyl-17,18-dimethoxy-10-methyl-5,8,11,15-tetraoxo-2,3,4,5,6,7,8,9,10,11,12,13,14,15-tetradecahydrobenzo[p][1]oxa[4,7,10,14]tetraazacycloheptadecine-13-carboxamide]	168 nM	211%
COc1cccc(CCNC(=O)[C@@H]2CC(=O)N(C)[C@@H](CC(C)C)C(=O)N(C)CC(=O)N[C@H](Cc3ccccc3)COc3ccc4nc(C)oc4c3C(=O)N2)c1 [Example 598, (8R,14S,18S)-8-benzyl-14-isobutyl-N-(3-methoxyphenethyl)-2,12,15-trimethyl-10,13,16,20-tetraoxo-7,8,9,10,11,12,13,14,15,16,17,18,19,20-tetradecahydrooxazolo[4′,5′:5,6]benzo[1,2-p][1]oxa[4,7,10,14]tetraazacycloheptadecine-18-carboxamide]	759 nM	312%
CC(C)C[C@H]1C(=O)N(CCC2CCCCC2)CC(=O)N[C@H](Cc2ccccc2)COc2ccc3ccccc3c2C(=O)N[C@H](C(=O)NCCc2ccc3c(c2)OCCC3)CC(=O)N1C [Example 599, (3S,7S,13R)-13-benzyl-N-(2-(chroman-7-yl)ethyl)-9-(2-cyclohexylethyl)-7-isobutyl-6-methyl-1,5,8,11-tetraoxo-1,2,3,4,5,6,7,8,9,10,11,12,13,14-tetradecahydronaphtho[1,2-p][1]oxa[4,7,10,14]tetraazacycloheptadecine-3-carboxamide]	151 nM	299%
CC(C)C[C@H]1C(=O)N(CCC2CCCCC2)CC(=O)N[C@H](Cc2ccccc2)COc2ccc3ccccc3c2C(=O)N[C@H](C(=O)NCCc2ccc3c(c2)OCC3)CC(=O)N1C [Example 600, (3S,7S,13R)-13-benzyl-9-(2-cyclohexylethyl)-N-(2-(2,3-dihydrobenzofuran-6-yl)ethyl)-7-isobutyl-6-methyl-1,5,8,11-tetraoxo-1,2,3,4,5,6,7,8,9,10,11,12,13,14-tetradecahydronaphtho[1,2-p][1]oxa[4,7,10,14]tetraazacycloheptadecine-3-carboxamide]	97 nM	286%
COc1cccc(CCNC(=O)[C@@H]2CC(=O)N(C)[C@@H](CC(C)C)C(=O)N3CCCC[C@H]3C(=O)N[C@H](Cc3ccccc3)COc3cc(OC)cc(OC)c3C(=O)N2)c1 [Example 601, (7S,11S,20R,22aS)-20-benzyl-7-isobutyl-14,16-dimethoxy-N-(3-methoxyphenethyl)-8-methyl-6,9,13,22-tetraoxo-1,3,4,6,7,8,9,10,11,12,13,19,20,21,22,22a-hexadecahydro-2H-benzo[p]pyrido[2,1-f][1]oxa[4,7,10,14]tetraazacycloheptadecine-11-carboxamide]	589 nM	138%
COc1cccc(CCNC(=O)[C@@H]2CC(=O)N(C)[C@@H](CC(C)C)C(=O)N3CCCC[C@@H]3C(=O)N[C@H](Cc3ccccc3)COc3cc(OC)cc(OC)c3C(=O)N2)c1 [Example 602, (7S,11S,20R,22aR)-20-benzyl-7-isobutyl-14,16-dimethoxy-N-(3-methoxyphenethyl)-8-methyl-6,9,13,22-tetraoxo-1,3,4,6,7,8,9,10,11,12,13,19,20,21,22,22a-hexadecahydro-2H-benzo[p]pyrido[2,1-f][1]oxa[4,7,10,14]tetraazacycloheptadecine-11-carboxamide]	286 nM	299%
COc1cccc(CCNC(=O)[C@@H]2CC(=O)N(C)[C@@H](CC(C)C)C(=O)N3CCCC[C@@H]3C(=O)N[C@H](Cc3ccccc3)COc3ccc4ccccc4c3C(=O)N2)c1 [Example 603, (4aR,7R,18S,22S)-7-benzyl-22-isobutyl-N-(3-methoxyphenethyl)-21-methyl-5,16,20,23-tetraoxo-2,3,4,4a,5,6,7,8,16,17,18,19,20,21,22,23-hexadecahydro-1H-naphtho[1,2-p]pyrido[2,1-f][1]oxa[4,7,10,14]tetraazacycloheptadecine-18-carboxamide]	205 nM	301%
COc1cccc(CCNC(=O)[C@@H]2CC(=O)N(C)[C@@H](CC(C)C)C(=O)N3CCCC[C@H]3C(=O)N[C@H](Cc3ccccc3)COc3ccc4ccccc4c3C(=O)N2)c1 [Example 604, (4aS,7R,18S,22S)-7-benzyl-22-isobutyl-N-(3-methoxyphenethyl)-21-methyl-5,16,20,23-tetraoxo-2,3,4,4a,5,6,7,8,16,17,18,19,20,21,22,23-hexadecahydro-1H-naphtho[1,2-p]pyrido[2,1-f][1]oxa[4,7,10,14]tetraazacycloheptadecine-18-carboxamide]	354 nM	103%
